Data taken from article PMC6268061, “Investigation of the Biological Properties of (Hetero)Aromatic Thiosemicarbazones” (Molecules, 2012).
Where two headings read alike, the source gives them in different places.

Legend:
Candida krusei ATCC 6258 = test: In vitro antifungal susceptibility, broth microdilution; type: cell-based; details: Pichia kudriavzevii, ATCC6258; 24 h and 48 h, only one value presented (inactive); read-out: MIC (IC80) CK
[1] = tested on: HCT-116 human colon cancer cells (p53 wild type); test: In vitro antiproliferative activity, MTS assay; type: cell-based; details: HCT-116, 72 h incubation, MTS, read-out: HCT-116 IC50
Procedure: The antiproliferative activity of all of the compounds was examined against the human colon cancer (HCT-116) cell line using an MTS assay. The HCT-116 p53 wild type cell line was chosen on the basis of our former experience and some results on the activity of quinoline-based thiosemicarbazones that was published recently. Namely, compounds 4a–l have been tested previously for their wide-ranging anticancer activity. The antiproliferative activity of the compounds evaluated was assessed using Doxorubicin as a reference compound. In general, quinoline-based thiosemicarbazones 4 seem to have a much better anticancer activity than halogenophenyl compounds 3. Thus, the quinoline nucleus can be defined as being crucial for antiproliferative activity. A more detailed analysis of the anticancer activity of quinoline-based thiosemicarbazone is available. […] Nevertheless, some more general conclusions can be drawn from the gathered data. […] The free amino group or substitution pattern with small substituents such as methyl or ethyl are favorable for activity. According to our former results the chelating ability of the compounds may be one of the prerequisites of the antiproliferative activity. In this study we have measured the UV-VIS spectra of the compounds in presence of various concentration of Fe^3+ cations to observe its chelating potency (supplementary material). […] However as 4j give also two points at 330 and 385 nm, iron chelating ability should be regarded only as one of the factor influencing the biological activity.
The human colon cancer cell line HCT116 with the wild type p53 gene (p53^+/+) were obtained from Maria Sklodowska-Curie Memorial Cancer Center in Gliwice, Poland. Briefly, the cells were seeded in 96-well plates (3 × 10^3 cells/well) in cellular proliferation assays 24 h before the addition of the chelators. The assay was performed following a 72 h incubation with varying concentrations of the agents. Each compound was tested in triplicate in a single experiment with each experiment being repeated 3 times. After 72 h incubation with the compounds being investigated, 20 µL of MTS solution was added to each well (100 µL) and incubated for 1 h at 37 °C. The optical densities of the samples were analyzed at 490 nm. Results were expressed as a percentage of the control. The inhibitory concentration (IC50) was defined as the compound concentration necessary to reduce the absorbance to 50% of the untreated control.

Candida tropicalis 156 = test: In vitro antifungal susceptibility, broth microdilution; type: cell-based; details: Candida tropicalis, 156; 24 h and 48 h, only one value presented (inactive); read-out: MIC (IC80) CT
[2] = tested on: Candida albicans ATCC 44859; test: as above; type: cell-based; details: ATCC44859, 24 h and 48 h, only one value presented (inactive), read-out: MIC (IC80) CA
[3] = tested on: Trichosporon beigelii 1188; test: as above; type: cell-based
Excerpt: The broth microdilution test was used for the assessment of the in vitro antifungal activity of the synthesized compounds against Candida albicans ATCC 44859 (CA), Candida tropicalis 156 (CT), Candida krusei ATCC 6258 (CK), Candida glabrata 20/I (CG), Trichosporon beigelii 1188 (TB), Aspergillus fumigatus 231 (AF), Absidia corymbifera 272 (AC), and Trichophyton mentagrophytes 445 (TM). Fluconazole (FLU) was used as the standard since it is a clinically used antimycotic drug. The procedure was performed using a twofold dilution of the compounds in RPMI 1640 (Sevapharma a.s., Prague, Czech Republic) buffered to pH 7.0 with […] of 3-morpholino-propane-1-sulfonic acid (MOPS, Sigma, Prague, Czech Republic). The final concentrations of the compounds ranged from 500 to 0.975 μmol/L. Drug-free controls were included. The determination of minimum inhibitory concentration (MIC) was performed according to the Clinical and Laboratory Standards Institute (CLSI, formerly NCCLS) reference protocol M27-A2 for yeasts (IC80 value) and M38-A for moulds (IC50 value). IC80 and IC50 were defined as an 80% resp. 50% or greater reduction in growth in comparison with the control. The values of MICs were determined after 24 and 48 h of static incubation at 35 °C. The final MICs for T. mentagrophytes, were determined after 72 and 120 h of incubation.

[4] = tested on: Trichophyton mentagrophytes 445; test: as above; type: cell-based; details: Trichophyton mentagrophytes, 445; 72 h and 120 h, only one value presented (inactive); read-out: MIC (IC50) TM
Candida glabrata 20/I = test: as above; type: cell-based; details: Nakaseomyces glabratus, 24 h and 48 h, only one value presented (inactive), read-out: MIC (IC80) CG
Absidia corymbifera 272 = test: as above; type: cell-based; details: Lichtheimia corymbifera, 272; 24 h and 48 h, only one value presented (inactive); read-out: MIC (IC50) AC
[5] = tested on: Aspergillus fumigatus 231; test: as above; type: cell-based; details: Aspergillus fumigatus, 231; 24 h and 48 h, only one value presented (inactive); read-out: MIC (IC50) AF
[6] = tested on: photosynthetic electron transport (PET) in spinach chloroplasts; test: Inhibition of photosynthetic electron transport (PET) in spinach chloroplasts; type: biochemical, Spinacia oleracea L.; details: DCPIP photoreduction
Procedure: Chloroplasts were prepared from spinach (Spinacia oleracea L.) according to Masarovicova and Kralova. The inhibition of the photosynthetic electron transport (PET) in spinach chloroplasts was determined spectrophotometrically (Genesys 6, Thermo Fisher Scientific, Waltham, MA, USA) using an artificial electron acceptor 2,6-dichlorophenol-indophenol (DCIPP) according to Kralova et al. and the rate of photosynthetic electron transport was monitored as a photoreduction of DCPIP. The measurements were carried out in a phosphate buffer (0.02 mol/L, pH 7.2) containing sucrose (0.4 mol/L), MgCl2 (0.005 mol/L) and NaCl (0.015 mol/L). The chlorophyll content was 30 mg/L in these experiments and the samples were irradiated (~100 W/m^2 with 10 cm distance) with a halogen lamp (250 W) using a 4 cm water filter to prevent warming of the samples (suspension temperature 22 °C). The compounds studied were dissolved in DMSO due to their limited water solubility. […] The inhibitory efficiency of the compounds studied was expressed by IC50 values, i.e., by the molar concentration of the compounds that caused a 50% decrease in the oxygen evolution rate relative to the untreated control.

[7] = Lipophilicity determination using RP-HPLC (capacity factor, log k); type: physicochemical; details: C18, MeOH 55%/H2O 45%
Excerpt: Reversed phase high performance liquid chromatography (RP-HPLC) methods have become popular and are widely used for lipophilicity measurements. The general procedure is the measurement of the directly accessible retention time under isocratic conditions using varying amounts of methanol as an organic modifier in the mobile phase using RP columns and calculating the logarithm of the capacity factors (log k). Log k is the logarithm of the capacity factors in chromatographic approaches that is related to the partitioning of a compound between a mobile and a (pseudo-)stationary phase. Log k is used as the lipophilicity index converted to log P scale.
A Waters Alliance 2695 XE HPLC separation module and a Waters Photodiode Array Detector 2996 (Waters Corp., Milford, MA, USA) were used. A Symmetry® C18 5 μm, 4.6 × 250 mm, Part No. WAT054275 (Waters Corp.) chromatographic column was used. The HPLC separation process was monitored using Empower™ 2 Chromatography Data Software, Waters 2009 (Waters Corp.). A mixture of MeOH p.a. (55%) and H2O-HPLC-Mili-Q Grade (45%) was used as a mobile phase. The total flow of the column was 0.9 mL/min, injection volume 30 μL, column temperature 30 °C and sample temperature 10 °C. A detection wavelength of 210 nm was chosen. A KI methanolic solution was used for the determination of dead time (tD). Retention times (tR) were measured in minutes. The capacity factors k were calculated using the Empower™ 2 Chromatography Data Software according to the formula k = (tR − tD)/tD, where tR is the retention time of the solute, whereas tD denotes the dead time obtained using an unretained analyte. Log k, calculated from the capacity factor k, is used as the lipophilicity index converted to log P scale.

[8] = Trichosporon beigelii, 1188, 24 h and 48 h, only one value presented (inactive), read-out: MIC (IC80) TB

Structure (SMILES) | MIC (Candida krusei ATCC 6258) [µM] | IC50 [1] [µM] | MIC (Candida tropicalis 156) [µM] | MIC [2] [µM] | MIC [3, 8] [µM] | IC50 [4] [µM] | MIC (Candida glabrata 20/I) [µM] | IC50 (Absidia corymbifera 272) [µM] | IC50 [5] [µM] | IC50 [6] [µM] | log k [7] | MIC ([3]; Trichosporon beigelii, 1188, read-out: MIC (IC80) TB) [µM]
CNC(=S)N/N=C/c1cccc(Cl)c1Cl [Compound 3b, (E)-2-(2,3-Dichlorobenzylidene)-N-methylhydrazinecarbothioamide] | > 500 | > 60 | > 500 | > 500 | > 500 | > 500 | > 500 | > 500 | > 500 | 170 | 0.7357 | –
CN(C)C(=S)N/N=C/c1cccc(Cl)c1Cl [Compound 3c, (E)-2-(2,3-Dichlorobenzylidene)-N,N-dimethylhydrazinecarbothioamide] | > 125 | – | > 125 | > 125 | > 125 | > 125 | > 125 | > 125 | > 125 | – | 0.7214 | –
S=C(N/N=C/c1cccc(Cl)c1Cl)Nc1ccccc1 [Compound 3e, (E)-2-(2,3-dichlorobenzylidene)-N-phenylhydrazinecarbothioamide] | > 125 | > 60 | > 125 | > 125 | > 125 | > 125 | > 125 | > 125 | > 125 | 499 | 0.9230 | –
CNC(=S)N/N=C/c1ccc(Br)cc1 [Compound 3l, (E)-2-(4-bromobenzylidene)-N-methylhydrazinecarbothioamide] | > 500 | > 60 | > 500 | > 500 | > 500 | > 500 | > 500 | > 500 | > 500 | – | 0.6993 | –
S=C(N/N=C/c1ccc(Br)cc1)Nc1ccccc1 [Compound 3o, (E)-2-(4-bromobenzylidene)-N-phenylhydrazinecarbothioamide] | > 500 | > 60 | > 500 | > 500 | > 500 | > 500 | > 500 | > 500 | > 500 | – | 0.8772 | –
CNC(=S)NN=Cc1ccc2ccccc2n1 [Compound 4a] | > 500 | > 25 | > 500 | > 500 | – | > 500 | > 500 | > 500 | > 500 | – | 0.6329 | > 500
